The test system of the assay is HCV pseudoparticles (genotype 1a HCV E1 and E2 envelope, H77C isolate). The assay is described as follows: microbe, parasite or virus in culture. Particulars: Hepatitis C virus. Type of assay: cell-based.
The mark [1] stands for this setting: Huh-7, 48 h, HCV pseudoparticle infection of Huh7 cells, luciferase 2 days after infection, average of duplicates.
Setting [2] is: Huh-7, 48 h, read-out: Activity (EC50 class), HCV pseudoparticle infection of Huh7 cells, luciferase 2 days after infection, EC50 expressed as class A/B.
Setting [3] is: Huh-7, read-out: Activity (EC50 class), HCV pseudoparticles (genotype 1a, H77C) in Huh7 cells, EC50 expressed as class A/B.
Where [4] appears, read: Huh-7, 48 h, read-out: Activity (EC50 class), HCV pseudoparticles, Huh7 cells, luciferase 2 days after infection, average of duplicates.
[5] abbreviates: Huh-7, 48 h, HCV pseudoparticles (genotype 1a, H77C) in Huh7 cells, average of duplicate, luciferase 2 days after infection.
Where [6] appears, read: Huh-7, 48 h, HCV pseudoparticles, Huh7 cells, luciferase 2 days after infection, average of duplicates.

Read-outs that look alike come from different tables or passages of the source.

Broadly, the EC50 is the concentration needed to bring the measured effect to its halfway point. In the case of `COC(=O)[C@H](CNC(=O)C(=O)NCc1ccc(F)cc1)NC(=O)c1ccc(Nc2nc(NC3(c4ccc(Cl)cc4)CC3)nc(OCC(F)(F)F)n2)cc1` [Compound 1133], the EC50 was 1.4 nM under setting [1] and 0.01 to 10 nM under setting [2].
Consider `CC(C)(CNC(=O)C(=O)Nc1ccccc1-n1ccnc1)CNC(=O)c1ccc(Nc2nc(NC3(c4ccc(Cl)cc4)CC3)nc(OCC(F)(F)F)n2)cc1` [Compound 3180], for which, under setting [3], the EC50 was in the range of 0.01 to 10 nM.
In the case of `O=C(NCC1CCCOC1)C(=O)NC[C@H](NC(=O)c1ccc(Nc2nc(NC3(c4ccc(Cl)cc4)CC3)nc(OCC(F)(F)F)n2)cc1)C(=O)O` (stereo partly drawn) [Compound 1470], the EC50 under setting [2] lay within 0.01 to 10 nM.
For `O=C(NCC[C@H](NC(=O)c1ccc(Nc2nc(NC3(c4ccc(Cl)cc4)CC3)nc(OCC(F)(F)F)n2)cc1)C(=O)O)C(=O)NCC1CCCc2ccccc21` (stereo partly drawn) [Compound 1343], the EC50 under setting [2] was in the range of 0.01 to 10 nM.
With `Cc1ccc(NC(=O)C(=O)NCCCCNC(=O)c2ccc(Nc3nc(NC4(c5ccc(Cl)cc5)CC4)nc(OCC(F)(F)F)n3)cc2)cc1` [Compound 3393], the EC50 under setting [3] was 0.01 to 10 nM.
Regarding `O=C(NC[C@H](NC(=O)c1ccc(Nc2nc(NC3(c4ccc(Cl)cc4)CC3)nc(OCC(F)(F)F)n2)cc1)C(=O)O)C(=O)Nc1ccc(C(F)(F)F)cc1` [Compound 1363], the EC50 under setting [2] lay in the range of 0.01 to 10 nM.
Regarding `O=C(NCCCCNC(=O)c1ccc(Nc2nc(NC3(c4ccc(Cl)cc4)CC3)nc(OCC(F)(F)F)n2)cc1)C(=O)Nc1cccc(F)c1` [Compound 3390], the EC50 under setting [3] was 0.01 to 10 nM.
With `COC(=O)[C@H](CCNC(=O)C(=O)Nc1cccnc1OC)NC(=O)c1ccc(Nc2nc(NC3(c4ccc(Cl)cc4)CC3)nc(OCC(F)(F)F)n2)cc1` [Compound 1216], the EC50 under setting [2] lay within 0.01 to 10 nM.
`Cc1ccc(NC(=O)C(=O)NCC[C@H](NC(=O)c2ccc(Nc3nc(NC4(c5ccc(Cl)cc5)CC4)nc(OCC(F)(F)F)n3)cc2)C(=O)O)cn1` [Compound 3636]: the EC50 under setting [4] was 0.01 to 10 nM.
For the compound `COC(=O)[C@H](CNC(=O)C(=O)Nc1ccccc1F)NC(=O)c1ccc(Nc2nc(NC3(c4ccc(Cl)cc4)CC3)nc(OCC(F)(F)F)n2)cc1` [Compound 1253], the EC50 under setting [2] lay within 0.01 to 10 nM.
The same measure, in the same setting: to `COC(=O)[C@H](CNC(=O)C(=O)NCC1CCCCC1)NC(=O)c1ccc(Nc2nc(NC3(c4ccc(Cl)cc4)CC3)nc(OCC(F)(F)F)n2)cc1` [Compound 1149] belongs 0.01 to 10 nM.
For `Cc1nnnn1-c1cc(Nc2nc(NC3(c4ccc(Cl)cc4)CC3)nc(OCC(F)(F)F)n2)ccc1C(=O)NCC(C)(C)CNC(=O)C(N)=O` [Compound 3519], under setting [3], the EC50 was in the range of 0.01 to 10 nM.
Turning to `COC(=O)[C@H](CNC(=O)C(=O)Nc1ccnn1C)NC(=O)c1ccc(Nc2nc(NC3(c4ccc(Cl)cc4)CC3)nc(OCC(F)(F)F)n2)cc1` [Compound 1260], the EC50 under setting [2] was in the range of 0.01 to 10 nM.
With `COC(=O)[C@H](CCNC(=O)C(=O)Nc1ccc(-c2ncco2)cc1)NC(=O)c1ccc(Nc2nc(NC3(c4ccc(Cl)cc4)CC3)nc(OCC(F)(F)F)n2)cc1` [Compound 3326], the EC50 under setting [3] lay within 0.01 to 10 nM.
With `COC(=O)[C@H](CNC(=O)C(=O)Nc1cc[nH]n1)NC(=O)c1ccc(Nc2nc(NC3(c4ccc(Cl)cc4)CC3)nc(OCC(F)(F)F)n2)cc1` [Compound 1245], the EC50 reads like this: under setting [1], 1.69 nM; under setting [2], 0.01 to 10 nM.
As for `CN(CCCN(C)C(=O)c1ccc(Nc2nc(NC3(c4ccc(Cl)cc4)CC3)nc(OCC(F)(F)F)n2)cc1)C(=O)C(=O)Nc1cc(F)cc(F)c1` [Compound 3427], the EC50 under setting [3] lay in the range of 0.01 to 10 nM.
As to `COC(=O)/C(CCNC(=O)C(=O)Nc1ccc(C)nc1)=N\C(=O)c1ccc(Nc2nc(NC3(c4ccc(Cl)cc4)CC3)nc(OCC(F)(F)F)n2)cc1` [Compound 3590], the EC50 under setting [5] is 0.16 nM and the EC50 under setting [3] fell in the range of 0.01 to 10 nM.
With `COC(=O)[C@H](CCNC(=O)C(=O)Nc1ccc(-n2ccnc2C)cc1)NC(=O)c1ccc(Nc2nc(NC3(c4ccc(Cl)cc4)CC3)nc(OCC(F)(F)F)n2)cc1` [Compound 3320], the 50% effective concentration (EC50) by setting is: under setting [5], 8.8 nM; under setting [3], 0.01 to 10 nM.
With `COC(=O)[C@H](CNC(=O)C(=O)NCC1CCCOC1)NC(=O)c1ccc(Nc2nc(NC3(c4ccc(Cl)cc4)CC3)nc(OCC(F)(F)F)n2)cc1` (stereo partly drawn) [Compound 1458], a half-maximal effect under setting [1] (EC50) was put at 3.2 nM and the EC50 under setting [2] lay in the range of 0.01 to 10 nM.
With `COC(=O)[C@H](CCNC(=O)C(=O)Nc1cccc(F)c1)NC(=O)c1ccc(Nc2nc(NC3(c4ccc(Cl)cc4)CC3)nc(OCC(F)(F)F)n2)cc1` [Compound 1227], under setting [2], the half-maximal effective concentration (EC50) was in the range of 0.01 to 10 nM.
For the compound `O=C(NCC1CCCc2ccccc21)C(=O)NC[C@@H](NC(=O)c1ccc(Nc2nc(NC3(c4ccc(Cl)cc4)CC3)nc(OCC(F)(F)F)n2)cc1)C(=O)O` (stereo partly drawn) [Compound 1410], the EC50 under setting [2] is 0.01 to 10 nM.
Same read-out and setting: in the case of `COC(=O)[C@H](CCNC(=O)C(=O)N[C@H]1C[C@H]2C[C@@H]([C@H]1C)C2(C)C)NC(=O)c1ccc(Nc2nc(NC3(c4ccc(Cl)cc4)CC3)nc(OCC(F)(F)F)n2)cc1` [Compound 1074] it was 0.01 to 10 nM; in that of `COC(=O)[C@H](CNC(=O)C(=O)N[C@@H]1C[C@@H]2CC[C@H]1C2)NC(=O)c1ccc(Nc2nc(NC3(c4ccc(Cl)cc4)CC3)nc(OCC(F)(F)F)n2)cc1` [Compound 1050], 0.01 to 10 nM.
Consider `COC(=O)[C@H](CNC(=O)C(=O)Nc1cccc(S(=O)(=O)N2CCCCC2)c1)NC(=O)c1ccc(Nc2nc(NC3(c4ccc(Cl)cc4)CC3)nc(OCC(F)(F)F)n2)cc1` [Compound 3717], for which the EC50 under setting [4] lay in the range of 0.01 to 10 nM.
Regarding `CC(C)(CNC(=O)C(=O)Nc1ccc(-c2ccncc2)cc1)CNC(=O)c1ccc(Nc2nc(NC3(c4ccc(Cl)cc4)CC3)nc(OCC(F)(F)F)n2)cc1` [Compound 3796], under setting [4], the EC50 lay within 0.01 to 10 nM.
In the case of `CC(C)(CNC(=O)C(=O)Nc1nc2c(F)cccc2s1)CNC(=O)c1ccc(Nc2nc(NC3(c4ccc(Cl)cc4)CC3)nc(OCC(F)(F)F)n2)cc1` [Compound 3824], the EC50 was 0.077 nM under setting [6] and 0.01 to 10 nM under setting [4].
For the compound `CC(C)OC(=O)c1ccc(-c2ccc(NC(=O)C(=O)NCC(C)(C)CNC(=O)c3ccc(Nc4nc(NC5(c6ccc(Cl)cc6)CC5)nc(OCC(F)(F)F)n4)cc3)cc2)cc1` [Compound 1488], the EC50 under setting [2] fell in the range of 0.01 to 10 nM.
On the same count and under the same terms, in the case of `O=C(NCC[C@@H](NC(=O)c1ccc(Nc2nc(NC3(c4ccc(Cl)cc4)CC3)nc(OCC(F)(F)F)n2)cc1)C(=O)O)C(=O)Nc1ccc(-c2ccccc2)cc1` [Compound 1557] it was 0.01 to 10 nM; in that of `CC(C)(CNC(=O)C(=O)Nc1ccc(Oc2nn[nH]n2)cc1)CNC(=O)c1ccc(Nc2nc(NC3(c4ccc(Cl)cc4)CC3)nc(OCC(F)(F)F)n2)cc1` [Compound 1490], 0.01 to 10 nM.
Turning to `COC(=O)[C@H](CCNC(=O)C(=O)N[C@H](C)C1CC1)NC(=O)c1ccc(Nc2nc(NC3(c4ccc(Cl)cc4)CC3)nc(OCC(F)(F)F)n2)cc1` [Compound 1377], the EC50 under setting [2] fell in the range of 0.01 to 10 nM.
On to `CC(CNC(=O)C(=O)Nc1cccc(F)c1)CNC(=O)c1ccc(Nc2nc(NC3(c4ccc(Cl)cc4)CC3)nc(OCC(F)(F)F)n2)cc1` (stereo not drawn) [Compound 3348], for which, under setting [3], the EC50 lay within 0.01 to 10 nM.
`CC(C)(C)OC(=O)NC1CCCC(NC(=O)C(=O)NCC[C@H](NC(=O)c2ccc(Nc3nc(NC4(c5ccc(Cl)cc5)CC4)nc(OCC(F)(F)F)n3)cc2)C(=O)O)C1` (stereo partly drawn) [Compound 1111]: under setting [2], the EC50 fell in the range of 0.01 to 10 nM.
For the compound `NC(=O)C(=O)NCC(CO)(CO)CNC(=O)c1ccc(Nc2nc(NC3(c4ccc(Cl)cc4)CC3)nc(OCC(F)(F)F)n2)cc1` [Compound 3838, N^1-(3-(4-((4-((1-(4-chlorophenyl)cyclopropyl)amino)-6-(2,2,2-trifluoroethoxy)-1,3,5-triazin-2-yl)amino)benzamido)-2,2-bis(hydroxymethyl)propyl)oxalamide], the EC50 is 0.052 nM under setting [6] and 0.01 to 10 nM under setting [4].
`COC(=O)[C@H](CCNC(=O)C(=O)NC1CCCCC1)NC(=O)c1ccc(Nc2nc(NC3(c4ccc(Cl)cc4)CC3)nc(OCC(F)(F)F)n2)cc1` [Compound 1140]: under setting [2], the EC50 fell in the range of 0.01 to 10 nM.
Regarding `CC1CN(c2ccc(NC(=O)C(=O)NC/C(=N/C(=O)c3ccc(Nc4nc(NC5(c6ccc(Cl)cc6)CC5)nc(OCC(F)(F)F)n4)cc3)C(=O)O)cc2)CC(C)N1` (stereo not drawn) [Compound 3160], under setting [3], the EC50 fell in the range of 0.01 to 10 nM.
Consider `Cc1nccn1CCNC(=O)C(=O)NCC[C@H](NC(=O)c1ccc(Nc2nc(NC3(c4ccc(Cl)cc4)CC3)nc(OCC(F)(F)F)n2)cc1)C(=O)O` [Compound 1344], for which the EC50 under setting [2] is 0.01 to 10 nM.
Turning to `COC(=O)/C(CCNC(=O)C(=O)Nc1cccc(C(C)(C)C)c1)=N\C(=O)c1ccc(Nc2nc(NC3(c4ccc(Cl)cc4)CC3)nc(OCC(F)(F)F)n2)cc1` [Compound 3586], under setting [3], the EC50 lay within 0.01 to 10 nM.
Regarding `COC(=O)[C@H](CNC(=O)C(=O)Nc1ccc(N2CCOCC2)cc1)NC(=O)c1ccc(Nc2nc(NC3(c4ccc(Cl)cc4)CC3)nc(OCC(F)(F)F)n2)cc1` [Compound 3080], under setting [3], the EC50 was 0.01 to 10 nM.
On the same count and under the same terms, in the case of `COC(=O)[C@H](CNC(=O)C(=O)Nc1ccc(-n2cccn2)cc1)NC(=O)c1ccc(Nc2nc(NC3(c4ccc(Cl)cc4)CC3)nc(OCC(F)(F)F)n2)cc1` [Compound 3108] it was 0.01 to 10 nM; in that of `COC(=O)[C@H](CNC(=O)C(=O)Nc1ccc(-c2csc(C)n2)cc1)NC(=O)c1ccc(Nc2nc(NC3(c4ccc(Cl)cc4)CC3)nc(OCC(F)(F)F)n2)cc1` [Compound 3190], 0.01 to 10 nM; in that of `O=C(Cc1nccs1)C(=O)NCC(O)CNC(=O)c1ccc(Nc2nc(NC3(c4ccc(Cl)cc4)CC3)nc(OCC(F)(F)F)n2)cc1` (stereo not drawn) [Compound 3462], 0.01 to 10 nM.
As to `COC(=O)[C@H](CCNC(=O)C(=O)NCC(C)c1ccccc1)NC(=O)c1ccc(Nc2nc(NC3(c4ccc(Cl)cc4)CC3)nc(OCC(F)(F)F)n2)cc1` (stereo partly drawn) [Compound 1307], the EC50 by setting is: under setting [1], 0.38 nM; under setting [2], 0.01 to 10 nM.
Consider `COC(=O)[C@H](CCNC(=O)C(=O)Nc1ccc(Oc2ccncc2)cc1)NC(=O)c1ccc(Nc2nc(NC3(c4ccc(Cl)cc4)CC3)nc(OCC(F)(F)F)n2)cc1` [Compound 3323], for which the EC50 under setting [3] was in the range of 0.01 to 10 nM.

These data come from patent US8916702B2 (priority 2012, dated 2014).
